Data taken from patent publication US9260504B2, “N- and C-terminal substituted antagonistic analogs of GH-RH” (University of Miami, priority 2008, dated 2016).

Tests used:
Assay type in all cases: in vivo
[1] = system: Human ovarian cancer SKOV3 cells; experiment: SKOV3 ovarian cancer xenografts in nude mice; conditions: 5 μg/day s.c.
From the text: Human ovarian cancer SKOV3 cells growing exponentially were implanted info five female nude mice by subcutaneous (s.c.) injection of 10^7 cells in both flanks. Tumors That resulted after approximately 4 weeks in donor animals were then aseptically dissected and mechanically minced. Three mm^3 pieces of tumor tissue were transplanted subcutaneously into experimental animals with a trocar needle. When tumors reached an appropriate size (approximately 50 mm^3), mice were randomly divided into […]. The first was the control group, the second group was treated with daily s.c. injections of 5 μg P-11313, the third group was treated with daily s.c. injections of 5 μg P-11604, the fourth group was treated with daily s.c. injections of 5 μg P-11610. Tumor volume (length×width×height×0.5236) was measured every week and mean tumor volumes of each group were compared by Student's t-test. The study lasted 49 days. One week after end of treatment, mice were killed under anesthesia, tumors were snap frozen and stored at −70° C.

[2] = system: H460 human non-small cell lung cancer cell line; experiment: H460 human non-small cell lung cancer xenografts in nude mice (Example XV); conditions: 5 μg/day s.c.
From the text: The aim of this study was to find out the tumor inhibitor effect of the latest GHRH antagonists (Peptide 11423, Peptide 11602, Peptide 11604, Peptide 11606) on H460 human non-small cell lung cancer cell line. Female nude mice were xenografted subcutaneously with approximately 3 mm^3 pieces of H460 human non-small cell lung cancer malignant tumor tissue. When tumors reached the mean volume of approximately 90 mm^3, the animals was randomly assigned into different groups. Tumor volumes and body weight were measured once a week. At the end of the experiment mice were anesthetized and sacrificed. Tumors were carefully excised, weighed and were stored at −80° C. until further investigation. Organs and tumor samples were preserved in 10% formaldehyde.

[3] = system: HT human diffuse mixed B cell lymphoma cell line; experiment: HT human diffuse mixed B cell lymphoma xenografts in nude mice; conditions: 5 μg/day s.c.
Experimental: The aim of this study was to find out the tumor inhibitor effect of the latest GHRH antagonists (Peptide 11602, Peptide 11604, Peptide 11606, and Peptide 11610) at the dose of 5 μg/day on HT human diffuse mixed B cell lymphoma cell line. Female nude mice were xenografted subcutaneously with approximately 3 mm^3 pieces of HT malignant tumor tissue. When tumors reached the mean volume of approximately 120 mm^3, the animals were randomly assigned into different groups. Tumor volumes and body weight were measured once a week. At the end of the experiment mice were anesthetized and sacrificed. Tumors were carefully excised, weighed and were stored at −80° C. until further investigation. Organs and tumor samples were preserved in 10% formaldehyde.

[4] = system: PC-3 human hormone-independent prostate cancer; experiment: PC3 androgen-independent prostate cancer xenografts in nude mice (Example XIV); conditions: 2 μg/day
Experimental: Male nude mice were implanted s.c. with 3 mm^3 pieces of PC-3 human hormone-independent prostate cancer tissue on both flanks. When tumors reached a volume of approximately 50 mm^3, the mice were divided into 8 experimental groups with 8 to 10 animals in each group and received single daily injections for 28 days as follows: 1. Control (vehicle solution); 2. P-11513 2 μg/day; 3. P-11602 2 μg/day; 4. P-11602 1 μg/day; 5. P-11604 2 μg/day; 6. P-11606 2 μg/day; 7. P-11610 2 μg/day; 8. P-11610 1 μg/day.
Tumor volumes were measured once a week. The experiment was ended on day 28 by sacrificing the mice under Isoflurane anesthesia. Resulting tumors were cleaned, weighed, and snap-frozen until further analyses. Statistical analyses of the measurement results were done by two-tailed t-test, p<0.05 being considered significant.

[5] = system: NCI-N87 human gastric cancer; experiment: NCI-N87 human gastric cancer xenografts in nude mice; conditions: 10 μg/day s.c.
Experimental: NCI-N87 cancers were transplanted s.c. into both flank areas of 30 female nude mice. The mice were randomly assigned into 4 experimental groups with 6 to 9 animals in each group and received single daily injections for 77 days as follows: 1. Control (vehicle solution); 2. JMR-132 (10 μg/day s.c.); 3. Peptide 1109 (10 μg/day s.c.); 4. Peptide 11479 (10 μg/day s.c.). Tumor volumes were measured once a week. The experiment was ended on day 77 by sacrificing the mice under Isoflurane anesthesia. Resulting tumors were cleaned, weighed, and snap-frozen until further analyses. Statistical analyses of the measurement results were done by two-tailed t-test, p<0.05 being considered significant. Data are presented as the means±S.E.

[(PhAc-Ada)^0-Tyr^1, D-Arg^2, (Phe(F)5)^6, Ala^8, Har^9, Tyr(Me)^10, His^11, Orn^12, Abu^15, His^20, Orn^21, Nle^27, D-Arg^28, Har^29, Agm^30]hGH-RH(1-29) [Peptide 11604]
TU growth (%) ([1]; day 0 (baseline)): 100% | TU growth (%) ([1]; day 7): 144.55% | TU inhibition (%) ([1]; day 7): 32.57% | TU growth (%) ([1]; day 14): 174.5% | TU inhibition (%) ([1]; day 14): 37.73% | TU growth (%) ([1]; day 21): 179.5% | TU inhibition (%) ([1]; day 21): 66.97% | TU growth (%) ([1]; day 28): 167.5% | TU inhibition (%) ([1]; day 28): 80.12% | TU growth (%) ([1]; day 35): 182.88% | TU inhibition (%) ([1]; day 35): 79.52% | TU growth (%) ([1]; day 42): 397.95% | TU inhibition (%) ([1]; day 42): 67.80% | TU growth (%) ([1]; day 49): 309.96% | TU inhibition (%) ([1]; day 49): 75.63% | TUMOR GROWTH (%) ([2]; day 1 (baseline)): 100.00% | TUMOR GROWTH (%) ([2]; day 7): 341.87% | Tumor inhibition (%) ([2]; day 7): 35.48% | TUMOR GROWTH (%) ([2]; day 14): 609.38% | Tumor inhibition (%) ([2]; day 14): 55.93% | TUMOR GROWTH (%) ([2]; day 21): 1006.40% | Tumor inhibition (%) ([2]; day 21): 59.24% | TUMOR GROWTH (%) ([2]; day 28): 1595.34% | Tumor inhibition (%) ([2]; day 28): 61.08% | TUMOR GROWTH (%) ([3]; day 1 (baseline)): 100% | Tumor inhibition (%) ([3]; day 1 (baseline)): 0% | Tumor volume (mm^3) ([3]; day 1 (baseline)): 125.04 mm^3 | TUMOR GROWTH (%) ([3]; day 7): 129.89% | Tumor inhibition (%) ([3]; day 7): 57.53% | Tumor volume (mm^3) ([3]; day 7): 165.21 mm^3 | TUMOR GROWTH (%) ([3]; day 14): 175.7% | Tumor inhibition (%) ([3]; day 14): 63.61% | Tumor volume (mm^3) ([3]; day 14): 231.44 mm^3 | TUMOR GROWTH (%) ([3]; day 21): 271.36% | Tumor inhibition (%) ([3]; day 21): 65.27% | Tumor volume (mm^3) ([3]; day 21): 563.86 mm^3 | TUMOR GROWTH (%) ([3]; day 28): 338.41% | Tumor inhibition (%) ([3]; day 28): 62.25% | Tumor volume (mm^3) ([3]; day 28): 818.2 mm^3 | TUMOR GROWTH (%) ([4]; day 0 (baseline)): 100% | TUMOR GROWTH (%) ([4]; day 7): 159.84% | Tumor inhibition (%) ([4]; day 7): 51.75% | TUMOR GROWTH (%) ([4]; day 14): 199.57% | Tumor inhibition (%) ([4]; day 14): 66.23% | TUMOR GROWTH (%) ([4]; day 21): 316.88% | Tumor inhibition (%) ([4]; day 21): 73.37% | TUMOR GROWTH (%) ([4]; day 28): 383.97% | Tumor inhibition (%) ([4]; day 28): 79.33%

[(Ac-Ada)^0-Tyr^1, D-Arg^2, (Phe(F)5)^6, Ala^8, Har^9, Tyr(Me)^10, His^11, Orn^12, Abu^15, His^20, Orn^21, Nle^27, D-Arg^28, Har^29]hGH-RH(1-29)NH2 [Peptide 11479]
Number of regressing tumors ([5]; 77 days): 1 | Tumor growth after 77 days (%) ([5]; 77 days, means±S.E.): 235 ± 48 % | Tumor weights ([5]; day 77, means±S.E.): 144 ± 41 mg | Tumor doubling time ([5]; calculated without the regressing tumors): 156.7 ± 55.7 days

[(PhAc^0-Ada)-Tyr^1, D-Arg^2, (Phe(F)5)^6, (Me-Ala)^8, Har^9, Tyr(Me)^10, His^11, Orn^12, Abu^15, His^20, Orn^21, Nle^27, D-Arg^28, Har^29, Agm^30]hGH-RH(1-29) [Peptide 11606]
TUMOR GROWTH (%) ([2]; day 1 (baseline)): 100.00% | TUMOR GROWTH (%) ([2]; day 7): 221.26% | Tumor inhibition (%) ([2]; day 7): 58.24% | TUMOR GROWTH (%) ([2]; day 14): 494.68% | Tumor inhibition (%) ([2]; day 14): 64.22% | TUMOR GROWTH (%) ([2]; day 21): 933.19% | Tumor inhibition (%) ([2]; day 21): 62.20% | TUMOR GROWTH (%) ([2]; day 28): 1482.03% | Tumor inhibition (%) ([2]; day 28): 63.85% | TUMOR GROWTH (%) ([3]; day 1 (baseline)): 100% | Tumor inhibition (%) ([3]; day 1 (baseline)): 0% | Tumor volume (mm^3) ([3]; day 1 (baseline)): 128.49 mm^3 | TUMOR GROWTH (%) ([3]; day 7): 209.74% | Tumor inhibition (%) ([3]; day 7): 31.38% | Tumor volume (mm^3) ([3]; day 7): 223.02 mm^3 | TUMOR GROWTH (%) ([3]; day 14): 352.2% | Tumor inhibition (%) ([3]; day 14): 27.05% | Tumor volume (mm^3) ([3]; day 14): 341.77 mm^3 | TUMOR GROWTH (%) ([3]; day 21): 453.71% | Tumor inhibition (%) ([3]; day 21): 41.94% | Tumor volume (mm^3) ([3]; day 21): 510.24 mm^3 | TUMOR GROWTH (%) ([3]; day 28): 660.24% | Tumor inhibition (%) ([3]; day 28): 26.35% | Tumor volume (mm^3) ([3]; day 28): 716.13 mm^3 | TUMOR GROWTH (%) ([4]; day 0 (baseline)): 100% | TUMOR GROWTH (%) ([4]; day 7): 145.65% | Tumor inhibition (%) ([4]; day 7): 56.03% | TUMOR GROWTH (%) ([4]; day 14): 307.66% | Tumor inhibition (%) ([4]; day 14): 47.94% | TUMOR GROWTH (%) ([4]; day 21): 521.69% | Tumor inhibition (%) ([4]; day 21): 56.16% | TUMOR GROWTH (%) ([4]; day 28): 709.50% | Tumor inhibition (%) ([4]; day 28): 61.80%
